# Experimental data: US6544787B1, “Non-myeloablative/lymphoablative conditioning regimen to induce patient anti-donor unresponsiveness in stem cell transplantation” (Hadash Medical Research Services and Development Ltd., priority 1996, dated 2003)
# “And” between values parts separate entries of the source, which are not always exact repeats. Identical values can stand only once.
# What was measured:
# [1] = tested on: human patients with malignant and non-malignant pathogenic cell diseases; format: in vivo; details: the other 8 patients who developed GVHD; starting with 2 mg/kg
# [2] = tested on: patient with ovarian cancer stage IIIc; test: CA-125 during prior chemotherapy, case history; format: in vivo, human; design: unit not given here
# [3] = tested on: cultured erythroid colonies; test: β-globin gene mutation assay on cultured erythroid colonies +/- Epo; format: cell-based, human; details: in the presence of Epo; 7% without Epo
# Protocol: To clarify the unusual clinical picture of this patient, a β-globin gene mutation assay was performed on cultured erythroid colonies, +/− erythropoietin (Epo). […] Donor cells without Epo amounted to 7%, similar to their percentage in peripheral blood lymphocytes and nucleated BMC, rising to 16% in the presence of Epo.
compound,measurement,setting,value
C[C@]12C=CC(=O)C=C1CC[C@@H]1[C@@H]2C(=O)C[C@@]2(C)[C@H]1CC[C@]2(O)C(=O)CO [prednisone],response of GVHD to treatment,[1],responded
CC(=O)O[C@H]1C(=O)[C@@]2(C)[C@H]([C@H](OC(=O)c3ccccc3)[C@]3(O)C[C@H](OC(=O)[C@H](O)[C@@H](NC(=O)c4ccccc4)c4ccccc4)C(C)=C1C3(C)C)[C@]1(OC(C)=O)CO[C@@H]1C[C@@H]2O [Taxol],CA-125,"[2]; 175 mg/m^2, after 3 cycles, from 600",27
same,CA-125,[2]; after 10 cycles,~22
same,CA-125,[2]; total of 28 courses,152
erythropoietin [Epo],Donor cells,[3],16%
N.N.[Cl][Pt][Cl] [cisplatinum],CA-125,[2]; several courses 20 mg/d x3d q3w,328 and 439.6
